Article PMC9599717, “The Multicellular Effects of VDAC1 N-Terminal-Derived Peptide” (Biomolecules, 2022)

How the values were obtained:
vinculin in U-87MG cells = assay: Vinculin immunofluorescence staining intensity; type: cell-based, human
Method: Cells were seeded on sterile glass coverslips in 12-well plates and cultured until reaching about 80% confluence. Cells were treated with D-Δ(1-18)N-Ter-Antp peptide in serum-free DMEM for 24 h. Then cells were washed with PBS, fixed in 4% paraformaldehyde for 20 min, washed three times with PBS, permeabilized with 0.3% Triton X-100 in PBS, and blocked, in blocking buffer (10% Normal goat serum, 1% fatty acid-free bovine serum albumin [BSA], 0.1% TritonX100 diluted in PBS) for 2 h. Cells were incubated overnight at 4 ℃ with the appropriate primary antibodies (Table S1), followed by three washes with PBS. […]
Quantitation of protein levels, as reflected in the staining intensity, was analyzed in the whole area of the sections using Image J software.
Figure 2 D-Δ(1-18)N-Ter-Antp-induced changes in cell morphology and cell membrane permeability. (A,B) U-87MG cells were treated with the indicated concentrations of D-Δ(1-18)N-Ter-Antp peptide for 16 h, and cell morphology was monitored by light microscope (A). Quantification of cell size (B). (C,D) U-87MG cells were untreated or treated with 10 μM of D-Δ(1-18)N-Ter-Antp peptide or N-TerΔ(21-26)-Antp for 24 h, and cell morphology was monitored by light microscope (C). Quantification of cell size (D). […] Quantification of vinculin staining intensity (F). […]

U-87MG cells = assay: Acridine orange (AO) staining of acidic vesicles; type: cell-based, human; conditions: 6 h, serum-free DMEM
Method: Figure 7 D-Δ(1-18)-N-Ter-Antp peptide induced vesicle/particle formation. U-87MG cells were treated for 6 h with the indicated concentrations of D-Δ(1-18)N-Ter-Antp peptide in serum-free DMEM. (A) Cells were visualized for vesicle formation under a light microscope. Red circles indicate vesicles/particles. The images were captured at 40× and two folds enlargement is shown. (B,C) Cells were stained with acridine orange (AO). Arrows indicate red/orange stained endosomal/lysosomal vesicles (B). Scale bars were 20 μm. Vesicles/particles are indicated by violet arrows. Quantification of AO staining intensity (C). (D) Cells were stained with anti-vinculin antibodies, followed by secondary anti-mouse-cy3 antibodies. […] (F) U-87MG cells were treated with various concentrations of D-Δ(1-18)N-Ter-Antp peptide for the indicated time and subjected to Oil Red O staining and quantification as described in the Supplementary Data. […]
color was read in a spectrophotometer at 680 nm. […]
U-87MG cells were treated with D-Δ(1-18)N-Ter-Antp peptide in serum-free DMEM media for 6 h at 37℃, incubated with acridine orange (1 μg/ml) for 15 min, visualized by fluorescence microscopy (Olympus LX2 - KSP, Tokyo, Japan), and images were captured with a CCD camera. About 200 cells were counted for each […]

19-FTKGYGFGL-26- RQIKIWFQNRRMKWKK [D-Δ(1-18)N-Ter-Antp]
Increase of vinculin expression compared to untreated cells (vinculin in U-87MG cells): 4 fold
Increase in orange color (AO accumulation in acidic vesicles) (U-87MG cells): more than 3 fold
